Data: paper PMC7211202 (Investigational New Drugs, 2019)

What was measured:
MDM2-p53 interaction = conditions: cited from earlier work
MDM2-amplified tumors = conditions: cited from earlier work
[1] = Dose-limiting toxicities and maximum tolerated dose; type: in vivo
Description: This open-label phase 1 study was conducted at 16 centers (ClinicalTrials.gov, NCT01723020). TP53 mutation status was confirmed by central laboratory assessment. The study was planned with two parts: a 3-part dose escalation (Part 1) and a dose expansion (Part 2). […] Intermediate doses were allowed when deemed appropriate. The dose expansion was planned for patients with MDM2-amplified tumors (group 1; liposarcomas, GBM, and other solid tumors), potentially MDM2-overexpressing tumors (group 2; ER+ metastatic breast cancer), or multiple myeloma (group 3).
Each patient was monitored for 21 days for the occurrence of dose-limiting toxicities (DLTs), defined as febrile neutropenia, neutropenic infection, grade 4 neutropenia lasting >7 days, grade ≥ 3 thrombocytopenia lasting >7 days (solid tumors only), grade 3 thrombocytopenia with grade ≥ 2 bleeding (solid tumors only), grade 3 or 4 thrombocytopenia with grade > 1 bleeding (multiple myeloma only), grade 4 thrombocytopenia (solid tumors only), or grade 4 thrombocytopenia lasting >14 days (multiple myeloma only), or as grade ≥ 3 nausea, vomiting, or diarrhea after support; grade 3 fatigue lasting >7 days; any other grade ≥ 3 adverse event (AE); grade ≥ 3 kidney injury (multiple myeloma only), or treatment-related AEs not returning to grade ≤ 1 (solid tumors only) per Common Terminology Criteria for Adverse Events (CTCAE), version 4.0. […] Treatment continued until disease progression, intolerable toxicity, or withdrawal of consent.

For CC(C)[C@@H](CS(=O)(=O)C(C)C)N1C(=O)[C@@](C)(CC(=O)O)C[C@H](c2cccc(Cl)c2)[C@H]1c1ccc(Cl)cc1 [AMG 232], the “affinity of blocking the MDM2-p53 interaction” value (MDM2-p53 interaction) is listed as “picomolar”, the “effect of treatment in tumor xenograft models” value (MDM2-amplified tumors) is listed as “tumor growth inhibition” and the “effect on MDM2-amplified tumors in xenograft models” value (MDM2-amplified tumors; through induction of growth arrest and apoptosis) is listed as “regression”. For the same compound, the DLT observed ([1]; 120-mg cohort, patient with esophageal cancer) was “grade 3 thrombocytopenia on day 15 that worsened to grade 4 on day 17”, the “Additional patients with cytopenias (grade 4 neutropenia; grade 4 thrombocytopenia) outside of the 21-day DLT evaluation window” value ([1]; 300-mg cohort) was “Two” and the DLT observed ([1]; 360-mg cohort, patient with rectal cancer) was “grade 4 thrombocytopenia on day 28”. The DLT observed ([1]; 480-mg cohort, patient with head and neck cancer) was “grade 3 neutropenia on day 22 that delayed treatment in the next cycle”, the “highest safe and tolerable dose” value ([1]; DLTs and delayed cytopenias considered, QD 7 days Q3W) was 240 mg and the “MTD (protocol-specified definition using DLTs incidence)” value ([1]; QD for 7 days Q3W, doses up to 480 mg) was “not reached”. The “Patients with DLTs” value ([1]; dose escalation) was “Three”.
